Consider eight compounds from PubChem BioAssay (NCI).

Some test systems named below: K-562 leukemia; MDA-MB-435; NCI-H226 lung; CAKI-1 renal; OVCAR-8 ovarian; SN12C renal; 786-0 renal; SF-295 CNS; A549 NSCLC; PC-3 prostate.
What all share (assay): inhibition of tumour cell growth, NCI panel, 48 h

Values joined by “and” are separate entries in the source; they are usually repeats but may differ in a detail not shown here. Identical values can stand only once.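 All cell lines were grown in 96-well plates and treated with compound for 48 hours. GI50 marks 50% less growth. TGI is the concentration that stops growth completely.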

As for `COc1cc(NC(C)CCCN)c2ncccc2c1` (configuration not stated), the TGI in the experiment on K-562 leukemia, with MDA-MB-435, in the experiment on NCI-H226 lung, with CAKI-1 renal, in the experiment on OVCAR-8 ovarian and in the experiment on SN12C renal was above 100 µM throughout. For the same compound, the TGI in the experiment with 786-0 renal, in the experiment on SF-295 CNS, in the experiment on A549 NSCLC and in the experiment with PC-3 prostate was above 100 µM each time. The GI50 in the experiment on SN12C renal was 41.4 µM and > 84.4 µM; with 786-0 renal it was 43.8 µM and > 88.2 µM.
Take `Cc1ccc(C(CC(=O)c2ccccc2)C2C(=O)NC(=O)NC2=O)cc1` (configuration not stated): the GI50 in the experiment with K-562 leukemia, in the experiment with MDA-MB-435, with NCI-H226 lung, in the experiment with CAKI-1 renal, in the experiment with OVCAR-8 ovarian and in the experiment on SN12C renal was above 100 µM throughout. Further, the GI50 in the experiment with 786-0 renal, in the experiment on SF-295 CNS, in the experiment on A549 NSCLC and in the experiment with PC-3 prostate was above 100 µM throughout. Further, the TGI in the experiment on K-562 leukemia, in the experiment on MDA-MB-435, with NCI-H226 lung, in the experiment on CAKI-1 renal, in the experiment with OVCAR-8 ovarian and with SN12C renal was above 100 µM throughout. The TGI in the experiment on 786-0 renal, in the experiment with SF-295 CNS, with A549 NSCLC and in the experiment with PC-3 prostate was above 100 µM each time.
`O=c1oc(Cl)c(Cl)c2ccccc12`: the GI50 with K-562 leukemia was 27.2 µM; in the experiment on MDA-MB-435, 22.3 µM; in the experiment with NCI-H226 lung it was 22.2 µM; in the experiment on CAKI-1 renal it was 21.5 µM; in the experiment with OVCAR-8 ovarian it was 47.8 µM; in the experiment with SN12C renal, 14.8 µM. Besides, the GI50 with 786-0 renal was 19.2 µM; with SF-295 CNS, 39.4 µM; in the experiment with A549 NSCLC it was 54.2 µM; in the experiment on PC-3 prostate it was 17.8 µM. For the same compound, the TGI is 70.5 µM in the experiment on K-562 leukemia; 45.9 µM with MDA-MB-435; 42.3 µM in the experiment on NCI-H226 lung; 39.6 µM with CAKI-1 renal; above 100 µM in the experiment with OVCAR-8 ovarian; 31.4 µM in the experiment on SN12C renal. Also, the TGI in the experiment on 786-0 renal was 40.4 µM; in the experiment with SF-295 CNS, above 100 µM; with A549 NSCLC, above 100 µM; in the experiment with PC-3 prostate, 35.2 µM.
Consider `Cc1cc(NCCN(C(C)C)C(C)C)nc(/N=C(\N)Nc2ccc(Cl)c(C(F)(F)F)c2)n1`, for which the GI50 in the experiment with K-562 leukemia was 0.191 µM; with MDA-MB-435, 0.196 µM; in the experiment on NCI-H226 lung, 1.96 µM; with CAKI-1 renal, 0.427 µM; in the experiment with OVCAR-8 ovarian, 0.275 µM; in the experiment with SN12C renal, 1.34 µM. Further, the GI50 with 786-0 renal is 0.736 µM; in the experiment with SF-295 CNS, 0.752 µM; in the experiment with A549 NSCLC, 0.356 µM; in the experiment on PC-3 prostate, 0.596 µM. For the same compound, the TGI with K-562 leukemia amounted to 0.411 µM; with MDA-MB-435 it was 0.389 µM; in the experiment on NCI-H226 lung it was 4.15 µM; in the experiment with CAKI-1 renal, 1.02 µM; with OVCAR-8 ovarian, 0.812 µM; in the experiment with SN12C renal it was 2.87 µM. Further, the TGI is 2.06 µM with 786-0 renal, 2.14 µM with SF-295 CNS, 1.11 µM with A549 NSCLC and 2.45 µM in the experiment on PC-3 prostate.
As to `CNC(=O)c1cccc2cc(Oc3ccnc4cc(OCC5(N)CC5)c(OC)cc34)ccc12`, the GI50 with K-562 leukemia was 3.55 µM; with MDA-MB-435, 3.09 µM; in the experiment with NCI-H226 lung it was 1.02 µM; in the experiment with CAKI-1 renal it was 11.9 µM; in the experiment with OVCAR-8 ovarian it was 8.77 µM; in the experiment with SN12C renal it was 6.01 µM. The GI50 in the experiment on 786-0 renal is 2.82 µM; in the experiment with SF-295 CNS, 10.1 µM; in the experiment with A549 NSCLC it was 10.9 µM; in the experiment with PC-3 prostate, 11 µM. Further, the TGI in the experiment with K-562 leukemia was 16.7 µM; with MDA-MB-435, 12 µM; in the experiment on NCI-H226 lung, 23.2 µM; with CAKI-1 renal, 25 µM; in the experiment on OVCAR-8 ovarian, 27.4 µM; in the experiment on SN12C renal, 24.1 µM. Also, the TGI with 786-0 renal came out at 10.1 µM; in the experiment on SF-295 CNS, 25 µM; in the experiment with A549 NSCLC it was 26.3 µM; with PC-3 prostate, 25.9 µM.
Regarding `COc1cc2c3c(n(CCCCN)c(=O)c2cc1OC)-c1cc2c(cc1C3=O)OCO2`, the GI50 was 0.431 µM in the experiment with K-562 leukemia; 2.29 µM in the experiment with MDA-MB-435; 0.492 µM with NCI-H226 lung; 0.656 µM in the experiment on CAKI-1 renal; 0.71 µM in the experiment on OVCAR-8 ovarian; 0.0583 µM in the experiment with SN12C renal. The GI50 in the experiment with 786-0 renal is 0.172 µM; in the experiment on SF-295 CNS it was 0.274 µM; in the experiment on A549 NSCLC, 1.06 µM; with PC-3 prostate, 0.159 µM. The TGI with K-562 leukemia came to 2.17 µM; in the experiment with MDA-MB-435, 7.32 µM; in the experiment with NCI-H226 lung, 1.58 µM; in the experiment on CAKI-1 renal, 4.12 µM; with OVCAR-8 ovarian it was 13.1 µM; with SN12C renal, 0.235 µM. For the same compound, the TGI turned out to be 0.889 µM in the experiment on 786-0 renal, 2.81 µM in the experiment on SF-295 CNS, 11.9 µM with A549 NSCLC and 0.583 µM in the experiment on PC-3 prostate.
Regarding `O=C(Nc1cccc(-n2cc(-c3ccncc3)c(-c3ccc(Cl)c(O)c3)n2)c1)c1ccc(N2CCOCC2)c(C(F)(F)F)c1`, the GI50 in the experiment on K-562 leukemia is 1.88 µM; with MDA-MB-435, 2.04 µM; in the experiment with NCI-H226 lung, above 50 µM; with CAKI-1 renal it was 2.78 µM; in the experiment with OVCAR-8 ovarian, 3.16 µM; in the experiment with SN12C renal it was 22 µM. Moreover, the GI50 with 786-0 renal was 2.83 µM; in the experiment with SF-295 CNS it was 1.71 µM; with A549 NSCLC, 3.08 µM; in the experiment on PC-3 prostate it was 2.15 µM. The TGI with K-562 leukemia was above 50 µM; in the experiment on MDA-MB-435 it was above 50 µM; with NCI-H226 lung it was above 50 µM; with CAKI-1 renal, 24.6 µM; in the experiment with OVCAR-8 ovarian, above 50 µM; in the experiment with SN12C renal, above 50 µM. In addition, the TGI in the experiment on 786-0 renal is 12.5 µM; with SF-295 CNS, 7.55 µM; with A549 NSCLC, above 50 µM; in the experiment on PC-3 prostate, above 50 µM.
With `COC(=O)c1ccccc1OCc1cc(=O)oc2ccc(C)cc12`, the TGI in the experiment with K-562 leukemia, with MDA-MB-435, with NCI-H226 lung, in the experiment on CAKI-1 renal, in the experiment with OVCAR-8 ovarian and with SN12C renal was above 100 µM each time. The TGI in the experiment with 786-0 renal is above 100 µM; in the experiment on SF-295 CNS, above 81.2 µM; in the experiment with A549 NSCLC, above 100 µM; in the experiment with PC-3 prostate it was above 100 µM.
